Experiments:
Type in all cases: in vivo
Canada Thistle = assay: Pre-emergent herbicidal test; conditions: 2 WAT, 11.2 kg/h; also: ranges in brackets are in %
Method: (§1) The pre-emergent test was conducted as follows:
(§2) A good grade of top soil was placed in aluminum pans and compacted to a depth of three-eighths to one-half inch from the top of the pan. On the top of the soil was placed a predetermined number of seeds or vegetative propagules of various plant species which were pressed into the soil surface. The soil required to level fill the pans after seeding or adding vegetative propagules was weighed into a pan. A known amount of the active ingredient applied in a solvent or as a wettable powder and the soil were thoroughly mixed, and used as a cover layer for prepared pans.
(§3) The herbicidal rating was obtained by means of a fixed scale based on the percent injury of each plant species. The ratings are defined as follows: […]
(§4) The compounds were also tested by utilizing the above procedure on the following plant species: […]

Velvetleaf = assay: Pre-emergent herbicidal test; also: ranges in brackets are in %
Method: as §1, §2, §3, §4

Lambsquarters = assay: Pre-emergent herbicidal test; also: ranges in brackets are in %
Method: as §1, §2, §3, §4

Downy Brome = assay: Pre-emergent herbicidal test; also: ranges in brackets are in %
Method: as §1, §2, §3, §4

Smartweed = assay: Pre-emergent herbicidal test; also: ranges in brackets are in %
Method: as §1, §2, §3, §4

Quackgrass = assay: Pre-emergent herbicidal test; conditions: 2 WAT, 11.2 kg/h; also: ranges in brackets are in %
Method: as §1, §2, §3, §4

Johnsongrass = assay: Pre-emergent herbicidal test; conditions: 2 WAT, 11.2 kg/h; also: ranges in brackets are in %
Method: as §1, §2, §3, §4

Cocklebur = assay: Pre-emergent herbicidal test; also: ranges in brackets are in %
Method: as §1, §2, §3, §4

Barnyardgrass = assay: Pre-emergent herbicidal test; also: ranges in brackets are in %
Method: as §1, §2, §3, §4

Morningglory = assay: Pre-emergent herbicidal test; also: ranges in brackets are in %
Method: as §1, §2, §3, §4

Yellow Nutsedge = assay: Pre-emergent herbicidal test; conditions: 2 WAT, 11.2 kg/h; also: ranges in brackets are in %
Method: as §1, §2, §3, §4

Williams soybeans = assay: Soybean seed yield test (Table V)
Method: Additionally, the compound of Example Number 3 was tested as follows.
Williams soybeans were planted on 5.5 inch row spacings. The soybeans were treated at three different stages of early growth (first, second or third trifoliate opening) with a formulation of the compound of Example Number 3 containing 0.25% Tween 20 as a surfactant.

Bluebell rice = assay: Growth regulation of rice; conditions: four-week old rice, 250 ppm, both at 3 weeks and 7 weeks after treatment
Excerpt: The compound of Example Number 3 was applied to four-week old Bluebell rice at a rate of 250 ppm.

Wild Buckwheat = assay: Pre-emergent herbicidal test; conditions: 4 WAT; also: ranges in brackets are in %
Method: as §1, §2, §3

Panicum Spp. = assay: Pre-emergent herbicidal test; conditions: 4 WAT; also: ranges in brackets are in %
Method: as §1, §2, §3

Crabgrass = assay: Pre-emergent herbicidal test; conditions: 4 WAT; also: ranges in brackets are in %
Method: as §1, §2, §3

Wheat = assay: Pre-emergent herbicidal test; conditions: 4 WAT; also: ranges in brackets are in %
Method: as §1, §2, §3

Sorghum = assay: Pre-emergent herbicidal test; conditions: 4 WAT; also: ranges in brackets are in %
Method: as §1, §2, §3

Hemp Sesbania = assay: Pre-emergent herbicidal test; conditions: 4 WAT; also: ranges in brackets are in %
Method: as §1, §2, §3

Rice = assay: Pre-emergent herbicidal test; conditions: 4 WAT; also: ranges in brackets are in %
Method: as §1, §2, §3

Soybean = assay: Pre-emergent herbicidal test; conditions: 4 WAT; also: ranges in brackets are in %
Method: as §1, §2, §3

Sugarbeet = assay: Pre-emergent herbicidal test; conditions: 4 WAT; also: ranges in brackets are in %
Method: as §1, §2, §3

harber barley = assay: Growth regulation of barley (Table X)
Excerpt: Table X, below, summarizes observations made when the compound of Example Number 3 was applied to harber barley.

grain sorghum = assay: Growth regulation of grain sorghum (Table IX); conditions: 250 ppm
Excerpt: The compound of Example Number 3 was also applied to four-week old grain sorghum at a rate of 250 ppm.

[1] = system: mixture of Kentucky Bluegrass, Creeping Red Fescue and Chewings Fescue; assay: Growth regulation of lawn grasses (Table VIII)
Method: The compound of Example Number 3 was tested on various lawn grasses as follows. A mixture of Kentucky Bluegrass, Creeping Red Fescue and Chewings Fescue were planted in a good grade of top soil in plastic pots. Seven to ten days after germination, the plants were treated with the active ingredient to which a surfactant had been added by spraying the plants until they were wet with various concentrations.

cheyenne wheat = assay: Growth regulation of wheat (Table XI)
Excerpt: Table XI summarizes observations made when the compound of Example Number 3 was applied to cheyenne wheat.

[2] = time of treatment 42 days, 10 ppm, 3 weeks after treatment
[3] = time of treatment 42 days, 50 ppm, 3 weeks after treatment
[4] = time of treatment 42 days, 250 ppm, 3 weeks after treatment

SMILES: COC(=O)c1ccccc1-c1cc(-c2cccc(C(F)(F)F)c2)no1 [Example 3, Methyl 2-[3-[3-(Trifluoromethyl)-Phenyl]-5-Isoxazolyl]Benzoate]
- herbicidal rating (Canada Thistle): 3 (75-100)
- herbicidal rating (Velvetleaf; 2 WAT, 11.2 kg/h): 2 (50-74)
- herbicidal rating (Velvetleaf; 4 WAT, 1.12 kg/h): 1 (25-49)
- herbicidal rating (Velvetleaf; 4 WAT, 5.60 kg/h): 2 (50-74)
- herbicidal rating (Lambsquarters; 2 WAT, 11.2 kg/h): 3 (75-100)
- herbicidal rating (Lambsquarters; 4 WAT, 1.12 kg/h): 1 (25-49)
- herbicidal rating (Lambsquarters; 4 WAT, 5.60 kg/h): 2 (50-74)
- herbicidal rating (Downy Brome; 2 WAT, 11.2 kg/h): 2 (50-74)
- herbicidal rating (Downy Brome; 4 WAT, 1.12 kg/h): 1 (25-49)
- herbicidal rating (Downy Brome; 4 WAT, 5.60 kg/h): 2 (50-74)
- herbicidal rating (Smartweed; 2 WAT, 11.2 kg/h): 3 (75-100)
- herbicidal rating (Smartweed; 4 WAT, 1.12 kg/h): 3 (75-100)
- herbicidal rating (Smartweed; 4 WAT, 5.60 kg/h): 3 (75-100)
- herbicidal rating (Quackgrass): 3 (75-100)
- herbicidal rating (Johnsongrass): 2 (50-74)
- herbicidal rating (Cocklebur; 2 WAT, 11.2 kg/h): 2 (50-74)
- herbicidal rating (Cocklebur; 4 WAT, 1.12 kg/h): 1 (25-49)
- herbicidal rating (Cocklebur; 4 WAT, 5.60 kg/h): 2 (50-74)
- herbicidal rating (Barnyardgrass; 2 WAT, 11.2 kg/h): 3 (75-100)
- herbicidal rating (Barnyardgrass; 4 WAT, 1.12 kg/h): 3 (75-100)
- herbicidal rating (Barnyardgrass; 4 WAT, 5.60 kg/h): 3 (75-100)
- herbicidal rating (Morningglory; 2 WAT, 11.2 kg/h): 2 (50-74)
- herbicidal rating (Morningglory; 4 WAT, 1.12 kg/h): 2 (50-74)
- herbicidal rating (Morningglory; 4 WAT, 5.60 kg/h): 3 (75-100)
- herbicidal rating (Yellow Nutsedge): 2 (50-74)
- Seed Yield (Williams soybeans; 0.0062 lb/acre, stage of application 2 (untreated 63.9)): 63.6 bu/acre
- Seed Yield (Williams soybeans; 0.0125 lb/acre, stage of application 1 (untreated 63.9)): 67.4 bu/acre
- Seed Yield (Williams soybeans; 0.0125 lb/acre, stage of application 2 (untreated 63.9)): 68.2 bu/acre
- Seed Yield (Williams soybeans; 0.0125 lb/acre, stage of application 3 (untreated 63.9)): 65.7 bu/acre
- Seed Yield (Williams soybeans; 0.0250 lb/acre, stage of application 1 (untreated 63.9)): 62.5 bu/acre
- Seed Yield (Williams soybeans; 0.0250 lb/acre, stage of application 2 (untreated 63.9)): 64.7 bu/acre
- Seed Yield (Williams soybeans; 0.0250 lb/acre, stage of application 3 (untreated 63.9)): 69.9 bu/acre
- Seed Yield (Williams soybeans; 0.0375 lb/acre, stage of application 1 (untreated 63.9)): 59.6 bu/acre
- Seed Yield (Williams soybeans; 0.0375 lb/acre, stage of application 2 (untreated 63.9)): 57.5 bu/acre
- Seed Yield (Williams soybeans; 0.0375 lb/acre, stage of application 3 (untreated 63.9)): 70.3 bu/acre
- Seed Yield (Williams soybeans; 0.0500 lb/acre, stage of application 2 (untreated 63.9)): 71.3 bu/acre
- Observations compared with the control (Bluebell rice): stature reduction and tillering
- herbicidal rating (Wild Buckwheat; 1.12 kg/h): 2 (50-74)
- herbicidal rating (Wild Buckwheat; 5.60 kg/h): 3 (75-100)
- herbicidal rating (Panicum Spp.; 1.12 kg/h): 2 (50-74)
- herbicidal rating (Panicum Spp.; 5.60 kg/h): 3 (75-100)
- herbicidal rating (Crabgrass; 1.12 kg/h): 2 (50-74)
- herbicidal rating (Crabgrass; 5.60 kg/h): 2 (50-74)
- herbicidal rating (Wheat; 1.12 kg/h): 1 (25-49)
- herbicidal rating (Wheat; 5.60 kg/h): 2 (50-74)
- herbicidal rating (Sorghum; 1.12 kg/h): 2 (50-74)
- herbicidal rating (Sorghum; 5.60 kg/h): 3 (75-100)
- herbicidal rating (Hemp Sesbania; 1.12 kg/h): 3 (75-100)
- herbicidal rating (Hemp Sesbania; 5.60 kg/h): 3 (75-100)
- herbicidal rating (Rice; 1.12 kg/h): 3 (75-100)
- herbicidal rating (Rice; 5.60 kg/h): 3 (75-100)
- herbicidal rating (Soybean; 1.12 kg/h): 2 (50-74)
- herbicidal rating (Soybean; 5.60 kg/h): 3 (75-100)
- herbicidal rating (Sugarbeet; 1.12 kg/h): 2 (50-74)
- herbicidal rating (Sugarbeet; 5.60 kg/h): 3 (75-100)
- Plant Height (harber barley; time of treatment 16 days, 250 ppm, 3 weeks after treatment): 90 % of Control
- Plant Height (harber barley; time of treatment 16 days, 250 ppm, 6 weeks after treatment): 97 % of Control
- Plant Height (harber barley; [2]): 93 % of Control
- Plant Height (harber barley; [3]): 106 % of Control
- Plant Height (harber barley; [4]): 90 % of Control
- Plant Height (grain sorghum; 3 weeks after treatment): 91 % of Control
- Other Observations (grain sorghum; 7 weeks after treatment): Necrosis.
- Plant Height (grain sorghum; 7 weeks after treatment): 81 % of Control
- Height ([1]; 10 ppm, 3 weeks after treatment): 102 % of Control
- Height ([1]; 10 ppm, 9 weeks after treatment): 93 % of Control
- Height ([1]; 50 ppm, 3 weeks after treatment): 94 % of Control
- Height ([1]; 50 ppm, 9 weeks after treatment): 86 % of Control
- Height ([1]; 250 ppm, 3 weeks after treatment): 66 % of Control
- Height ([1]; 250 ppm, 9 weeks after treatment): 57 % of Control
- Plant Height (cheyenne wheat; time of treatment 15 days, 250 ppm, 3 weeks after treatment): 80 % of Control
- Plant Height (cheyenne wheat; time of treatment 15 days, 250 ppm, 6 weeks after treatment): 93 % of Control
- Plant Height (cheyenne wheat; [2]): 113 % of Control
- Plant Height (cheyenne wheat; [3]): 112 % of Control
- Plant Height (cheyenne wheat; [4]): 109 % of Control
